Where two headings read alike, the source gives them in different places.
Columns and labels:
[1] = 9:1 MeOH:water; cited from earlier work
U87MG tumor = assay: in vivo; parameters: species or system mice; settings: mouse
Protocol: (§1) Animal procedures were performed according to a protocol approved by the University of Southern California Institutional Animal Care and Use Committee. For static microPET scans, mice bearing U87MG xenografts were injected with 3.7 MBq (100 μCi) of ^18F-41 via the tail vein (n=3 for each group). At 0.5, 1, and 2 h post injection (p.i.), the mice were anesthetized with isoflurane (5% for induction and 2% for maintenance in 100% O2) using a knock-down box. With the help of a laser beam attached to the scanner, the mice were placed in the prone position and near the center of the field of view of the scanner. The 3-min static scans were then obtained. Images were reconstructed using a 2-dimensional ordered-subsets expectation maximization (OSEM) algorithm. No background correction was performed. Regions of interest (ROIs; 5 pixels for coronal and transaxial slices) were drawn over the tumor on decay-corrected whole-body coronal images. The maximum counts per pixel per minute were obtained from the ROI and converted to counts per milliliter per minute using a calibration constant. With the assumption of a tissue density of 1 g/mL, the ROIs were converted to counts per gram per min. Image ROI-derived % ID/g values were determined by dividing counts per gram per minute with injected dose. No attenuation correction was performed. Similarly, ^18F-43 was injected into healthy nude mice for microPET study.
(§2) Representative coronal microPET images of U87MG tumor-bearing mice (n=3/group) were obtained at different times after intravenous injection of about 3.7 MBq (100 μCi) of ^18F-41. The tumors after injection of the radiotracers were all clearly visible with good contrast to contralateral background at all time points measured. […] Quantification of tumor and major organ activity accumulation in the microPET scans was achieved by measuring regions of interest (ROIs) encompassing the entire organ on the coronal images. Tumor and major organ uptake of ^18F-41 is depicted in FIG. 3A. The tumor uptake of ^18F-41 in U87MG tumor was 1.98±0.33, 1.80±0.15, and 1.27±0.33% ID/g at 0.5, 1, and 2 h p.i., respectively. The uptake of the ^18F-41 decreased rapidly with time in the muscle, affording better image contrast at later time points after injection (2 h).

in vivo = assay: in vivo; parameters: species or system mice; settings: mouse, iv, 3.7 MBq, total radioactivity
Protocol: as §1, §2

[2] = Stability and isomerization of Diels-Alder conjugate 10 in water, CD3CN/H2O, PBS; format: physicochemical; settings: for rearrangement to ^19F-11, conversion: CD3CN/H2O
[3] = Rate of Diels-Alder reaction with 3,6-di(2-pyridyl)-s-tetrazine (1a); format: physicochemical
Description: The inventors have previously described tetrazine-trans-cyclooctene ligation (‘ITCO ligation’) as a method of bioconjugation that proceeds with fast reaction rates without need for catalysis (M. L. Blackman, M. Royzen and J. M. Fox, J. Am. Chem. Soc. 2008, 130, 13518-13519) trans-Cyclooctene derivatives are readily prepared from cis-cyclooctenes using a photochemical flow-reaction that the inventors developed (M. Royzen, G. P. A. Yap and J. M. Fox, J. Am. Chem. Soc. 2008, 130, 3760-3761). […] Thus, the reaction between trans-cyclooctene and 1a proceeds with a rapid rate (k2˜2000 M^−1 s^−1 in 9:1 MeOH:water), and is successful in cell media and cell lysate.
The inventors also used a photochemical flow reactor (M. Royzen, G. Yap, and J. Fox, J. Am. Chem. Soc. 2008, 130 (12), 3760) to synthesize 16, an analog of 7 with a functionalizable group. The rate of the reaction of compound 16 with 3,6-di(2-pyridyl)-s-tetrazine (1a) in methanol was k2=22000 M^−1s^−1, […] than the reaction of 1a with trans-cyclooctene in the same solvent. […] Compound 16 can be readily converted into carbamate derivatives, and compound 16 can be selectively conjugated to the protein thioredoxin using the conjugation of maleimide 26 (vide infra) to a cysteine residue, and that conjugate can in turn can take part in tetrazine ligation analogous to that shown below for compound 16.

[4] = Stability of 16 in human serum; format: in vitro ADME; settings: 24 hours
[5] = Chemical stability of 16 (water, amine, thiol); format: physicochemical; settings: 24 hours

In the case of `C1=C/CCCCCC/1` [trans-cyclooctene], the “k2, reaction with 1a” value [1] is listed as about 2000 M⁻¹ s⁻¹.

With `N=C(N)NCCC[C@@H]1NC(=O)[C@H](CSC2CC(=O)N(CCNC(=O)CCCC(=O)Nc3ccc(C4=NN=C(c5ccccn5)C5CCCCC(OCCF)CC45)nc3)C2=O)NC(=O)[C@@H](Cc2ccc(O)cc2)NC(=O)[C@H](CC(=O)O)NC(=O)CNC1=O` (stereo partly drawn) [^18F-41] the excretion route (U87MG tumor) was “mainly excreted through the renal system”, the tissue uptake at 0.5 h (in vivo) was 1.98 ± 0.33 %ID/g and the tissue uptake at 1 h (in vivo) was 1.8 ± 0.15 %ID/g. It also gave a tissue uptake at 2 h (in vivo) of 1.27 ± 0.33 %ID/g.

In the case of `FCCO[C@@H]1CCC[C@@H]2C(c3ccccn3)=NN=C(c3ccccn3)[C@H]2CC1` [compound 10, 7-(2-fluoroethoxy)-1,4-di(pyridin-2-yl)-4a,5,6,7,8,9,10,10a-octahydrocycloocta[d]pyridazine], the stability in water [2] is reported as “stable”, the “rearrangement to ^19F-11, conversion” value ([2]; after 4 hours) is reported as 11% and the “rearrangement to ^19F-11, conversion” value ([2]; after 48 hours) is reported as over 95%.

In the case of `OC[C@@H]1[C@H]2CC/C=C/CC[C@@H]12` [compound 16], the “rate of reaction with 1a” value ([3]; aqueous solvent systems, UV-vis spectroscopy) is reported as “too fast to measure”, the “k2, reaction with 1a” value ([3]; methanol) is reported as 22000 M⁻¹ s⁻¹ and the “rate relative to reaction of 1a with trans-cyclooctene” value ([3]; same solvent (methanol)) is reported as 18 times faster. For the same compound, the stability [4] was “no degradation”, the stability ([5]; 5 mM ethanethiol in MeOH) was “no degradation” and the stability ([5]; 5 mM n-butylamine in MeOH) was “no degradation”. For the same compound, the stability ([5]; water) was “no degradation”.

Reference: patent US10434197B2, “Tetrazine-trans-cyclooctene ligation for the rapid construction of radionuclide labeled probes” (University of Delaware, priority 2010, dated 2019)
